# According to US11872225B2, “Pyruvate kinase modulators and use thereof” (Agios Pharmaceuticals, Inc., priority 2017, dated 2024):
# Assays:
# PKM2 = PKM2 (Mus musculus, UniProt P52480); settings: in vivo, LPS; cited from earlier work
# wild type PKM2 = wild type PKM2 (Homo sapiens, UniProt P14618); assay: PKM2 Assay (LDH/NADH-coupled, absorbance at 340 nm); format: biochemical; settings: wild type PKM2 activation; 60 min preincubation at 25° C.; ADP 0.4 mM, PEP 0.11 mM; read-out: PKM2 WT AC50
# Experimental: A compound described herein may be tested for its ability to activate PKM2. For simplicity, the activation activity of these compounds is represented as an AC50 in Table 2. In Tables 2, a compound described herein may have an AC50 of wild type PKM2.
# PKM2 enzyme stock solution was diluted to prepare a 1.11× Reaction Mix (without ADP). 1 μL of test compound was first added to the wells followed by 40 μL of 1.11× Reaction Mix (without ADP) and incubated at room temperature (25° C.) for 60 min. The reaction was initiated with 10 μL ADP (0.4 mM final concentration), bringing the final Reaction Mix to 1×, and the reaction progress was measured as changes in absorbance at 340 nm wavelength at room temperature.
# Test compound preparation: Test compounds were prepared at 50× final concentration in DMSO. 1 to 3 dilutions were made for 11 points (for example 50 μL of 5000 μM compound was added to 100 μL 100% DMSO to yield a 1667 μM, 50 μL of this added to 100 μL DMSO to yield 556 μM, and so forth). The compounds were added to the assay as a 1 to 50 dilution (1 μL in 50 μL) to yield a top concentration of 100 μM, decreasing 3-fold for 11 points.
# Reaction Mix: PKM2 (5 ng/well, 0.1 μg/ml), ADP (0.4 mM), PEP (0.11 mM), NADH (180 μM), LDH (0.005 U/μL, Sigma #L3888), 1 mM DTT, 0.03% BSA in 1× Reaction Buffer
# Reaction Buffer: 100 mM KCl, 50 mM Tris pH 7.5, 5 mM MgCl2.
# wild type PKM2, sequence (P14618 whole entry): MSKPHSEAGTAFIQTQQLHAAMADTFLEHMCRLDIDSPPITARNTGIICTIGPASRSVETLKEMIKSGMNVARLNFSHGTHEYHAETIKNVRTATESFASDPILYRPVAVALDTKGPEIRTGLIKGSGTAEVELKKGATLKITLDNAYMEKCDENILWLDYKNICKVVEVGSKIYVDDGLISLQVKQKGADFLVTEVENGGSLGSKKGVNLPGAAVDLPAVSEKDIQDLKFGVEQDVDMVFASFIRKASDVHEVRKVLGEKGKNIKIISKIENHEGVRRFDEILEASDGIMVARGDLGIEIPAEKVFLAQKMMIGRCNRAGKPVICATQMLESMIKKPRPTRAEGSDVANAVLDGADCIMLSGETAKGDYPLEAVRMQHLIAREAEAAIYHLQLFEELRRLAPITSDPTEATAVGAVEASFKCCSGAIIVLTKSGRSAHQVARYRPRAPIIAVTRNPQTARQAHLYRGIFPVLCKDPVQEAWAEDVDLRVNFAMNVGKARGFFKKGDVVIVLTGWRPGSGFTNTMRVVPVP
# PKM2, sequence (P52480 whole entry): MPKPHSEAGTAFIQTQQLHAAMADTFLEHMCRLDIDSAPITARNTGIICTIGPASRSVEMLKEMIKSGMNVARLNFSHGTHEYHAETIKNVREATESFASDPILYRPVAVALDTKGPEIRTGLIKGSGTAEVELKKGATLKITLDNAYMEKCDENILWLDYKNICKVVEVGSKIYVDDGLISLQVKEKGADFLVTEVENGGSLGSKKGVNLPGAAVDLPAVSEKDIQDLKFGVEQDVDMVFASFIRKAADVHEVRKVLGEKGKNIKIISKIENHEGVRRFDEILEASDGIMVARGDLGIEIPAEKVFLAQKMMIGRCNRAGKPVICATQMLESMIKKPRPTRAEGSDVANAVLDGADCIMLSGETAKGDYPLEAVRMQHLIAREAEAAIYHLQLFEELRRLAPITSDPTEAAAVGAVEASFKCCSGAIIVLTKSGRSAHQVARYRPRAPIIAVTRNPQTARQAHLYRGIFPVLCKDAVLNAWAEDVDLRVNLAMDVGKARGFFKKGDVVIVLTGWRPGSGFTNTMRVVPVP
Structure (SMILES),AC50 (wild type PKM2) [nM],other results
Cn1c2cc([S+](C)[O-])sc2c2cnn(Cc3cccc(N)c3)c(=O)c21 (stereo not drawn) [TEPP-46],,IL-1β production (PKM2): inhibited LPS and IL-1β production; production of IL-10 (PKM2): boosting production of IL-10
Cn1c2nc(Cc3cc[nH]n3)sc2c2cnn(Cc3ccccc3)c(=O)c21 [Compound 72],< 300,
Cn1cc(C(N)=O)c(Cn2ncc3c4sc(Cc5cc[nH]n5)nc4n(C)c3c2=O)n1 [Compound 116],> 800,
Cn1c2nc([S+](C)[O-])sc2c2cnn(Cc3cnc(N)nc3)c(=O)c21 (stereo not drawn) [Compound 34],> 800,
Cn1ccc(Cc2nc3c(s2)c2cnn(Cc4ccn[nH]4)c(=O)c2n3C)n1 [Compound 110],< 300,
Cn1c2nc(Cn3cncn3)sc2c2cnn(Cc3ccnc(N)n3)c(=O)c21 [Compound 143],> 800,
Cn1c2nc(Cc3cc[nH]n3)sc2c2cnn(Cc3nccc(N)n3)c(=O)c21 [Compound 135],< 300,
Cn1c2nc(Cc3cc[nH]n3)sc2c2cnn(Cc3n[nH]c(=O)[nH]3)c(=O)c21 [Compound 131],301 to 800,
Cn1c2nc(Cc3cnoc3)sc2c2cnn(Cc3cccc4[nH]ncc34)c(=O)c21 [Compound 65],< 300,
Cn1c2nc(Cc3cc[nH]n3)sc2c2cnn(Cc3nc(N)ccc3F)c(=O)c21 [Compound 107],< 300,
Cn1c2nc(Cc3cc[nH]n3)sc2c2cnn(Cc3cccc4c3CCN4)c(=O)c21 [Compound 85],< 300,
Cn1cc(Cc2nc3c(s2)c2cnn(Cc4cccc5[nH]ncc45)c(=O)c2n3C)cn1 [Compound 66],< 300,
Cn1c2nc(Cc3cc[nH]n3)sc2c2cnn(Cc3csc(C(N)=O)n3)c(=O)c21 [Compound 69],< 300,
Cn1c2nc(Cc3ccccn3)sc2c2cnn(Cc3nccs3)c(=O)c21 [Compound 91],< 300,
Cn1c2nc(-n3cnc(CS(=O)(=O)c4ccccc4)c3)sc2c2cnn(Cc3cccc4[nH]ncc34)c(=O)c21 [Compound 67],> 800,
Cn1c2nc(Cc3c[nH]nn3)sc2c2cnn(Cc3cccc(N)n3)c(=O)c21 [Compound 104],< 300,
Cc1nc2c(s1)c1cnn(Cc3cccc4c3cnn4C)c(=O)c1n2C [Compound 28],< 300,
COc1cccc(Cn2ncc3c4sc(CC5CCCCC5)nc4n(C)c3c2=O)c1 [Compound 19],> 800,

Structure (SMILES),AC50 (wild type PKM2) [nM],other results
Cc1nc2c(s1)c1cnn(Cc3ccc(N)cc3)c(=O)c1n2C [Compound 18],> 800,
Cn1ccc(Cn2ncc3c4sc(CCc5cccnc5)nc4n(C)c3c2=O)n1 [Compound 141],> 800,
Cn1c2nc(Cc3n[nH]cc3C(F)(F)F)sc2c2cnn(Cc3cccc4[nH]ncc34)c(=O)c21 [Compound 59],> 800,
CSc1nc2c(s1)c1cnn(Cc3ccnc(=O)[nH]3)c(=O)c1n2C [Compound 35],> 800,
Cn1c2nc(Cc3cc[nH]n3)sc2c2cnn(Cc3csc(CO)n3)c(=O)c21 [Compound 68],< 300,
Cn1c2nc(Cc3cc[nH]n3)sc2c2cnn(Cc3ncns3)c(=O)c21 [Compound 94],< 300,
CSc1nc2c(s1)c1cnn(Cc3cccc(S(N)(=O)=O)c3)c(=O)c1n2C [Compound 41],301 to 800,
Cn1c2nc(Cc3cc[nH]n3)sc2c2cnn(Cc3cccc4nn[nH]c34)c(=O)c21 [Compound 77],< 300,
Cn1c2nc(Cn3cncn3)sc2c2cnn(Cc3n[nH]c(=O)[nH]3)c(=O)c21 [Compound 145],> 800,
Cn1c2nc(Cc3n[nH]cc3F)sc2c2cnn(Cc3cc[nH]n3)c(=O)c21 [Compound 111],< 300,
Cn1c2nc(C(c3cccc4[nH]ncc34)S(=O)(=O)c3ccccc3)sc2c2cnn(Cc3cccc4[nH]ncc34)c(=O)c21 (stereo not drawn) [Compound 50],> 800,
CCOC(=O)Cn1ncc2c3sc(C)nc3n(C)c2c1=O [Compound 24],> 800,
COc1cccc(Cn2ncc3c4sc(S(=O)(=O)c5ccccc5)nc4n(C)c3c2=O)c1 [Compound 10],< 300,
Cn1c2nc(CN)sc2c2cnn(Cc3cccc4[nH]ncc34)c(=O)c21 [Compound 49],301 to 800,
Cn1c2nc(C3(c4ccccc4)CC3)sc2c2cnn(Cc3cccc4[nH]ncc34)c(=O)c21 [Compound 53],> 800,
Cc1nc2c(s1)c1cnn(Cc3ccc4nn[nH]c4c3)c(=O)c1n2C [Compound 6],301 to 800,
O=c1c2c(cnn1Cc1ccccc1)c1sc(Cc3ccccn3)nc1n2-c1ccccc1 [Compound 140],> 800,
